{"source": "patent US20150181863A1", "about": "“FLEXIBLE SUPERABSORBENT BINDER POLYMER AND ANTIMICROBIAL AGENT COMPOSITION” (EVONIK INDUSTRIES AG, priority 2013, published 2015)", "tested_on": "Escherichia coli (ATCC 11229)/Staphylococcus aureus (ATCC 6538)/Pseudomonas aeruginosa (ATCC 27853)", "experiment": "Zone of Inhibition Test, control line (organism not stated)", "assay_type": "cell-based", "details": "5 μg disk, n = 1; one value only, organism not assigned; 48 hours at ambient temperature", "protocol": "Zone of inhibition testing with a variety of gram negative and gram positive bacteria was performed. The test material was brought into contact with a known amount of test microorganisms on an agar plate for 48 hours at ambient temperature. At the end of the contact time the diameter of inhibited colony formation (zone of inhibition) surrounding the test material was measured.\nReferenced method AATCC 147-1998 “Antibacterial Activity Assessment of Textile Materials: Parallel Streak Method” with changes for following Zone of Inhibition procedure (AATCC is “American Association of Textile Chemists and Colorists” located in Research Triangle Park, N.C.):\nOrganisms used in this study were Escherichia coli (ATCC 11229)/Staphylococcus aureus (ATCC 6538)/Pseudomonas aeruginosa (ATCC 27853) (ATCC is “American Type Culture Collection” an organization in Manassas, Va.). Washed cells were diluted in Butterfield's Phosphate buffer to a target titer of approximately 10^8 colony forming units (CFU)/mL. Agar plates for testing were brought to room temperature prior to inoculation. A sterile applicator swab was placed in cell suspension and excess fluid was expressed using the side of the centrifuge tube. […] At the end of the contact time, the diameter of inhibited colony formation (zone of inhibition) surrounding the test material was measured.", "data": [{"smiles": "CN[C@H](CC(C)C)C(=O)N[C@H]1C(=O)N[C@@H](CC(N)=O)C(=O)N[C@H]2C(=O)N[C@H]3C(=O)N[C@H](C(=O)N[C@H](C(=O)O)c4cc(O)cc(O)c4-c4cc3ccc4O)[C@H](O)c3ccc(c(Cl)c3)Oc3cc2cc(c3O[C@@H]2O[C@H](CO)[C@@H](O)[C@H](O)[C@H]2O[C@H]2C[C@](C)(N)[C@H](O)[C@H](C)O2)Oc2ccc(cc2Cl)[C@H]1O", "note": "[Positive Control, vancomycin]", "values": [{"measurement": "ZOI* (cm), single value for control", "result": 1.9, "unit": "cm"}]}]}
